# Source: patent US20150289513A1, “USE OF A COMPOUND COMPRISING A POLYFLUOROBENZYL MOIETY AGAINST INSECTICIDE-RESISTANT PESTS” (priority 2012, published 2015)
# Experiments:
# [1] = tested on: Anopheles gambiae (target-site-resistant and metabolic-resistant strain: RSPH); experiment: Glazed tile contact test, knock-down; type: in vivo
# Procedure: (§1) To produce a suitable preparation Transfluthrin was dissolved in acetone. The active compound solution was pipetted onto a glazed tile and, after drying, adult mosquitoes of the species: • Anopheles gambiae (target-site-resistant and metabolic-resistant strain: RSPH), • Anopheles gambiae (target-site-resitant and metabolic-resistant strain: Tiassalé), • Anopheles gambiae (tar et-site-resitant and metabolic-resistant strain: Akron), • Anopheles gambiae (target-site-resistant strain: VK7), and • Anopheles funestus (metabolic-resistant strain FUMOZ-R) were placed onto the treated tile (each strain was tested on separate tiles). The exposition time was 30 minutes.
# (§2) 0.25 hours, 0.5 hours, 1 hour, 2 hour, 3 hour, 4 hour and 24 hours after contact to the treated surface, the knock-down proportion of the test animals in % was determined. Here, 100% (effect) means that all mosquitoes have been killed; 0% (effect) means that none of the mosquitoes have been killed.
# (§3) Similarly as outlined in example 2 for Transfluthrin, Metofluthrin efficacy was assessed against • Anopheles gambiae (target-site-resistant and metabolic-resistant strain: RSPH), • Anopheles funestus (metabolic-resistant strain FUMOZ-R), and • Culex quinquefasciatus (metabolic-resistant to DDT; strain P00), with the results shown in Tables 10 to 12. 0.25 hours, 0.5 hours, 1 hour, 2 hour, 3 hour, 4 hour and 24 hours after contact to the treated surface, the knock-down proportion of the test animals in % is depicted in Tables 10 to 12. 100% (effect) means that all mosquitoes have been killed; 0% (effect) means that none of the mosquitoes have been killed.
# (§4) Similarly as outlined in example 2 for Transfluthrin, Metofluthrin efficacy was assessed against • Anopheles gambiae (target-site-resistant and metabolic-resistant strain: RSPH), • Anopheles funestus (metabolic-resistant strain FUMOZ-R), and with the results shown in Tables […]. 0.25 hours, 0.5 hours, 1 hour, 2 hour and 3 hours after contact to the treated surface, the knock-down proportion of the test animals in % is depicted in Tables 13 to 14. 100% (effect) means that all mosquitoes have been killed; 0% (effect) means that none of the mosquitoes have been killed.
# [2] = tested on: Anopheles funestus (metabolic-resistant strain FUMOZ-R); experiment: Glazed tile contact test, knock-down; type: in vivo
# Procedure: as §1, §2, §3, §4
structure (smiles),measurement,setting,value
"COCc1c(F)c(F)c(COC(=O)C2C(C=C(C)C#N)C2(C)C)c(F)c1F (centres unmarked) [Momfluorothrin, 2,3,5,6-Tetrafluoro-4-(methoxymethyl)benzyl 3-(2-cyano-1-propen-1-yl)-2,2-dimethylcyclopropanecarboxylate]",Effect %,"[1]; 1.6 g/ha, 0.25 h after contact",10%
same,Effect %,"[1]; 1.6 g/ha, 0.5 h after contact",7%
same,Effect %,"[1]; 1.6 g/ha, 1 h after contact",35%
same,Effect %,"[1]; 1.6 g/ha, 2 h after contact",14%
same,Effect %,"[1]; 1.6 g/ha, 3 h after contact",14%
same,Effect %,"[1]; 40 g/ha, 0.25 h after contact",100%
same,Effect %,"[1]; 40 g/ha, 0.5 h after contact",100%
same,Effect %,"[1]; 40 g/ha, 1 h after contact",100%
same,Effect %,"[1]; 40 g/ha, 2 h after contact",100%
same,Effect %,"[1]; 40 g/ha, 3 h after contact",100%
same,Effect %,"[2]; 1.6 g/ha, 0.25 h after contact",0%
same,Effect %,"[2]; 1.6 g/ha, 0.5 h after contact",0%
same,Effect %,"[2]; 1.6 g/ha, 1 h after contact",0%
same,Effect %,"[2]; 1.6 g/ha, 2 h after contact",10%
same,Effect %,"[2]; 1.6 g/ha, 3 h after contact",20%
same,Effect %,"[2]; 40 g/ha, 0.25 h after contact",100%
same,Effect %,"[2]; 40 g/ha, 0.5 h after contact",100%
same,Effect %,"[2]; 40 g/ha, 1 h after contact",100%
same,Effect %,"[2]; 40 g/ha, 2 h after contact",90%
same,Effect %,"[2]; 40 g/ha, 3 h after contact",100%
